These results are taken from patent publication US9346832B2, “Gold complexes for use in the treatment of cancer” (University of Kwazulu-Natal, priority 2010, dated 2016).

For data set [1], the system named is 60 human cancer cell lines. The following applies: comparison drugs, NCI database, mean over 60 cell lines, cited from earlier work.
Data set [2] relates to 3LL tumor (Lewis lung carcinoma). In words: 3LL tumor growth in black mice. The settings on record: 20 days, 26 μmol/kg once weekly.
The next data set addresses T1, topoisomerase I (Homo sapiens, UniProt P11387).
T1 sequence (P11387 1-765): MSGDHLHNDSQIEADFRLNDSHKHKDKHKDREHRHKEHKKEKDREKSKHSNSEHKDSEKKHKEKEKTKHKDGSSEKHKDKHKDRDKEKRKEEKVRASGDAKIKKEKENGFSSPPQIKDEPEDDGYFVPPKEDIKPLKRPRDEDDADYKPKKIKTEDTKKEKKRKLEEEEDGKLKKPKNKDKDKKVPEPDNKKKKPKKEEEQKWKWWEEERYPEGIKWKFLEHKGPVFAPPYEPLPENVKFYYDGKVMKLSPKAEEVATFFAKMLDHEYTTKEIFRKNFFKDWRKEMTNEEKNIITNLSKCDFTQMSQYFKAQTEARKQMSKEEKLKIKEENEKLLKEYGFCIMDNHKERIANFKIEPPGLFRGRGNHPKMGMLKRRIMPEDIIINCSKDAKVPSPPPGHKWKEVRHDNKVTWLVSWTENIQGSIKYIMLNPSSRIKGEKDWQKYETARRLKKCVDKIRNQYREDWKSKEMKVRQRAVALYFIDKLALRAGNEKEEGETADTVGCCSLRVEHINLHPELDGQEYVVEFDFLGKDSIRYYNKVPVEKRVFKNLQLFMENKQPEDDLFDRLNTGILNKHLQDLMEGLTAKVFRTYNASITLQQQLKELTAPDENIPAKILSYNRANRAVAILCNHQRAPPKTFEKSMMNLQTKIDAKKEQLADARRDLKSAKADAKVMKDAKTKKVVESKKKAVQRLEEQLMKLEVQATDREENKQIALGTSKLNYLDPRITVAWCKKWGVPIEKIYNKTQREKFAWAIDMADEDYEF
In words: Supercoiled plasmid DNA relaxation assay with human topoisomerase I. The format is biochemical. The protocol:
FIG. 19 is a photograph of a gel showing the inhibition of human topoisomerase I by KA_AumacroPr as determined by supercoiled plasmid DNA relaxation assay (agarose gel electrophoresis).
Lanes 2-12 have 5U of topoisomerase I. The enzyme fully relaxes supercoiled (SC) DNA in lanes 3-8 for KA_AumacroPr concentrations ranging from 0-50 nM.
This is consistent with strong intercalative binding of KA_AumacroPr to the plasmid DNA probably before and after the action of topoisomerase I, and consequently inhibition of its normal turnover cycle.

For another data set, the system named is calf thymus DNA. In words: Calf-thymus DNA titration (absorption hypochroism). It is filed as binding. The protocol:
FIG. 20 is a graph of the titration of MA_AuPr (1.1a) with calf-thymus DNA in aqueous pH 7 phosphate buffer at 37° C.
The hypochroism of the absorption band of the complex at 383 nm was monitored as a function of added ctDNA. […] Ka is the equilibrium binding constant in M^−1, Ct is the total Au(III) complex concentration, and s is the binding site size.

A further data set relates to human cancer cell lines. The experiment in a line: Cytotoxicity summary (NCI-60 or independent cytotoxicity screen), Scheme 19. It is filed as cell-based.
A further data set deals with HeLa cells. The experiment in a line: HeLa cell cytotoxicity dose-response. It is filed as cell-based. The following applies: for IC50: pH 7.0, 37° C. On the procedure: FIG. 9 is a graph of the dose-response curves (HeLa cells, pH 7.0, 37° C.) for three macrocyclic Au(III) chelates. IC50 values for the complexes against HeLa cells obtained from the least squares data fits (graph) are given in the 3rd column of the table.
A summary of the average cytotoxicity data over 60 human cancer cell lines for 1.1a-1.1c and comparison with selected commercial and patented cytotoxic agents is shown in Scheme 7. […] The more abrupt the curve, the harder the dose-response function.

The subject of data set [3] is panel of human cancer cell lines. The settings on record: cited from earlier work.
Data set [4] can be described thus: Hydrolysis in aqueous solution. It is filed as physicochemical. The following applies: aqueous / phosphate buffered aqueous solutions. From the text:
This is why binding to DNA of the intact chelate occurs (FIGS. 14 and 20). However, it is noteworthy that hydrolysis of a Au(III)-Npyrrole bond is a reaction that may be catalyzed by enzymes in plasma and could account for the plasma instability of MA_AuPr.

Data set [5] concerns 60 human cancer cell lines. The experiment in a line: NCI-60 one-dose screen. It is filed as cell-based. The settings on record: single dose 10 μM. On the procedure:
(§1) The gold(III) complexes of this invention were screened by the National Cancer Institute (NCI, USA) against their panel of 60 different human cancer cell lines. These screens initially entail a one-dose test for the compound at a high concentration (10 μM; e.g. FIGS. 5, 6 and 7). Compounds with a good cytotoxicity profile in the one-dose screen are then subjected to a five-dose screen for the full panel of sixty human cancer cell lines (the so-called 5-dose NCI-60 screen). In the full five-dose screen, the compound concentration is varied in five doses from 10^−8 M to 10^−4 M in order to establish a dose-response function of percentage cell growth versus the concentration of the test agent. […] Similar data will shortly be available for compounds 1.1Y^1b and 1.5Y^1a as these derivatives are in 5-dose screens currently at the NCI.
The results of one-dose NCI-60 screens are noteworthy and merit some discussion as they quickly indicate activity profiles, cell-line specificity, and general cytotoxicity for the test agents across multiple human cancer cell lines. FIGS. 5, 6, and 7 set out the one-dose screening results for MA_AuPr (FIG. 5), KA_AumacroPr (FIG. 6), and KA_AuMelmPr (FIG. 7) obtained by the NCI. These three compounds are the parent derivatives that are representative of the three new types of gold(III) Schiff base chelate relevant to this invention. All other compounds synthesized as part of this invention have been similarly analyzed.

Data set [6] has as its target topoisomerase II (topo II) (Homo sapiens, UniProt P11388). In words: Topoisomerase II (topo II) DNA cleavage assay with kinetoplast DNA, agarose gel. It is filed as biochemical. On the procedure:
FIG. 18 is a photograph of an agarose gel electrophoresis topoisomerase II (topo II) DNA cleavage assay (66 ng kinetoplast DNA, 4 U topo II) as a function of the concentration of KA_AumacroPr (complex 1.1Y^1a) (top) and a graph of a standard dose-response function fit of the experimental titration data (top gel) with (solid line) and without (dashed line) a Hill coefficient. The maximum ESD from triplicate measurements is shown (15%). Lanes 1-4 of the gel contain catenated DNA (no topo II), decatenated DNA (topo II present), decatenated DNA (solvent control), and linear DNA, respectively. The lane marked VP-16 contained DNA, topo II, and etoposide (VP-16). Band labels: I, catenated DNA; II, open-circular (OC) DNA; III, linear DNA; IV, closed-covalently circular (CCC) DNA. […]
The topo II inhibition assay for the Au(III) macrocycle KA_AumacroPr is shown above in FIG. 18.

The subject of data set [7] is 60 human cancer cell lines. The experiment in a line: NCI-60 five-dose screen, mean cytotoxicity over 60 human cancer cell lines. The format is cell-based. The settings on record: mean over 60 human cancer cell lines. On the procedure:
as §1
The mean cytotoxicity data summarized in Scheme 7 were compiled over 60 human cancer cell lines from the NCI database. […] The dose-response curves for the bis(pyrrolide-imine) chelates of the invention are steeper, or harder, than those of all the compounds compared in Scheme 7.

Read-outs that look alike come from different tables or passages of the source.

topoisomerase II (topo II), sequence (P11388 whole entry): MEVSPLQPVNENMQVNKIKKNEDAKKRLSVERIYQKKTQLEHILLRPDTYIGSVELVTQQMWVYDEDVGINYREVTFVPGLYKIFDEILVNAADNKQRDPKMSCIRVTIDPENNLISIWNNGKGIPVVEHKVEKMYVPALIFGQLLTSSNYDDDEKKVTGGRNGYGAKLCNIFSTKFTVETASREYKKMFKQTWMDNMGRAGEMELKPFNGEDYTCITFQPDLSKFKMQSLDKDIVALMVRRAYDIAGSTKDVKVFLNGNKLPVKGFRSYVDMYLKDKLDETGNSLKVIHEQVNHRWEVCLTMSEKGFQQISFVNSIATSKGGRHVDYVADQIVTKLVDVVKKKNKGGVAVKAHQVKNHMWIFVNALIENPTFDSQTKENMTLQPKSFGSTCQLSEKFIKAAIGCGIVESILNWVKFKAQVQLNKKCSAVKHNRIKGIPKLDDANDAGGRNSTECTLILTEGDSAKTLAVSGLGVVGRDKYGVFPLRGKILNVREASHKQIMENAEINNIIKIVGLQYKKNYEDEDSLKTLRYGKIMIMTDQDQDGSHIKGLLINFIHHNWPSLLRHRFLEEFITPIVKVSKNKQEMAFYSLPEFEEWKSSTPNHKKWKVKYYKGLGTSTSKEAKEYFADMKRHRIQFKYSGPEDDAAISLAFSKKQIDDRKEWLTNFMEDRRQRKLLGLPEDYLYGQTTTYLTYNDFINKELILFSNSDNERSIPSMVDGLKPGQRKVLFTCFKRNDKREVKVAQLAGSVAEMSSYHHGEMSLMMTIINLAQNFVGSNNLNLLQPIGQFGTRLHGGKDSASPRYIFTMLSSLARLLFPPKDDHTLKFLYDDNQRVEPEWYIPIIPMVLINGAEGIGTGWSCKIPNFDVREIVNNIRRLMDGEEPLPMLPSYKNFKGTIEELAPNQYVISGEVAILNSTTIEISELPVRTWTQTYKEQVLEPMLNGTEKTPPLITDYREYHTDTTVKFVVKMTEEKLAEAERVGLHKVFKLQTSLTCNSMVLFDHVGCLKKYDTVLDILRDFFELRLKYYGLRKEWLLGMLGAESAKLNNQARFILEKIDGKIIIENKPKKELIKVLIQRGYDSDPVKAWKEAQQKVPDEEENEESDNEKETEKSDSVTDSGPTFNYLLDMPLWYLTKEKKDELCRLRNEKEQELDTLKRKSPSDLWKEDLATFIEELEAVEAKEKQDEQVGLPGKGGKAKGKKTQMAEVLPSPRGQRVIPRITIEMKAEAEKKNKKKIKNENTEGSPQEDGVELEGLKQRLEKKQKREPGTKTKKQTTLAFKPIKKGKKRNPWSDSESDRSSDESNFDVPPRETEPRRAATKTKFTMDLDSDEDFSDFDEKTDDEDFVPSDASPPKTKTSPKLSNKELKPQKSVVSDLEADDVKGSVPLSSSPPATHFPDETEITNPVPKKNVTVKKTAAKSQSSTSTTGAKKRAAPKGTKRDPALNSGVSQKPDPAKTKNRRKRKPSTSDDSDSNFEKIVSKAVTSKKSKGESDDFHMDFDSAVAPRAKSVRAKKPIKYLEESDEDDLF

Consider `N.N.[Cl][Pt][Cl]` [cisplatin, cis-[PtCl2(NH3)2]], for which the 50% growth inhibitory concentration (GI50) in data set [1] (50% growth inhibition) was 2 µM. In [1] (read-out: TGI or IC50, total growth inhibition), the half-maximal inhibitory concentration (IC50) was 27 µM. Moreover, the “reduction of 3LL tumor growth rate” value in [2] turned out to be 76%.
With `ClC1CN=Cc2ccc3[n]2[Au+][n]2c(ccc2-c2nc4ccccc4nc2-3)C=NC1.F[P-](F)(F)(F)(F)F` (stereo not drawn) [Compound 1.1Y^1e, {13-chloro-12,14-dihydro-6,9:17,20-diepimino[1,6]diazacyclo-heptadecino[12,13-β]quinoxalinato}gold(III) hexafluorophosphate(V)], on topoisomerase I (listed as 1.1Y^1b), the “action on human topoisomerase I” value is “catalytic inhibitor of human topoisomerase I”. In addition, in the data set on calf thymus DNA (KA series: pH 7.0 15% DMSO-TRIS buffer at 25° C., listed as 1.1Y^1a), the “Ka (calf thymus DNA)” value is 2.8(2) × 10^6 M^−1. In addition, the “Ka (calf thymus DNA)” value in the data set on calf thymus DNA (KA series: pH 7.0 15% DMSO-TRIS buffer at 25° C., listed as 1.1Y^1b) is 1.49(8) × 10^6 M^−1. The Cytotoxicity entry with human cancer cell lines is recorded as “active”. In the data set on HeLa cells, the GI50 is roughly 0.1 µM and the IC50 was roughly 3 µM.
`C1=[N+]2CCCC[N+]3=Cc4ccc5[n]4[Au-]23[n]2c1ccc2-c1nc2ccccc2nc1-5.F[P-](F)(F)(F)(F)F` [KA_AumacroBu, {12,13,14,15-tetrahydro-6,9:18,21-diepimino[1,6]diazacycloctadecino[12,13-b]quinoxalinato}gold(III) hexafluorophosphate(V)]: in the data set with calf thymus DNA (KA series: pH 7.0 15% DMSO-TRIS buffer at 25° C.), the “Ka (calf thymus DNA)” value is on record as 1.20(9) × 10^6 M^−1. Also, the Cytotoxicity entry in the data set with human cancer cell lines was “active”. In addition, in the data set on HeLa cells, the 50% growth inhibitory concentration (GI50) is roughly 0.1 µM and the IC50 worked out at 0.37 µM. The CC50 with HeLa cells (read-out: LC50 (the source's name)) was less than 10 µM.
Turning to `C1=Cc2nc1c(-c1ccccc1)c1ccc([nH]1)c(-c1ccccc1)c1nc(c(-c3ccccc3)c3ccc([nH]3)c2-c2ccccc2)C=C1` [[Zn^II(TPP)]], the 50% inhibitory concentration (IC50) in [3] (literature values) was greater than 50 µM.
On to `C1=[N+]2CC[N+]3=Cc4ccc[n]4[Au-]23[n]2cccc21.F[P-](F)(F)(F)(F)F` [Compound 1.2a, 2,2′-{ethane-1,2-diylbis[nitrilo(E)methylylidene]}bis(pyrrol-1-ido)gold(III) hexafluorophosphate(V)], for which the hydrolysis entry in data set [4] was “water may displace a pyrrole ring from the Au(III) ion”.
In the case of “4,4′-{propane-1,3-diylbis[nitrilo(E)methylylide]}bis(5-methylimidazol-1-ide)gold(III) hexafluorophosphate(V) [KA_AuMelmPr]”, the one-dose screening result in data set [5] was “Breast and leukemia cell lines were, as a group, the most sensitive”.
`C1=[N+]2CCC[N+]3=Cc4ccc5[n]4[Au-]23[n]2c1ccc2-c1nc2ccccc2nc1-5.F[P-](F)(F)(F)(F)F` [KA_AumacroPr, {12,13-dihydro-14H-6,9:17,20-diepimino[1,6]diazacyclo-heptadecino[12,13-β]quinoxalinato}gold(III) hexafluorophosphate(V)]: the “action on human topoisomerase I” value at topoisomerase I is reported as “interferes with the normal operation of human topoisomerase I”. Besides, at topoisomerase I (5U topoisomerase I), the “concentrations at which the enzyme fully relaxes supercoiled DNA” value lay in the range of 0 to 50 nM. At topoisomerase I (5U topoisomerase I, up to 500 μM), the “concentrations at which topoisomerase I exhibits abnormal and incomplete substrate relaxation” value is reported as no less than 500 nM. In addition, in data set [6] (66 ng kinetoplast DNA, 4 U topo II, read-out: IC50 (enzyme inhibition)), the IC50 came out at 4.8 µM. Also, the “action on topo II” value in data set [6] (no trapped linear DNA cleavage products) is listed as “pure catalytic inhibitor”. Moreover, the one-dose screening result in [5] is on record as “good cytotoxicity for the majority of the cell lines”.
For `C1=Cc2nc1c(-c1ccccc1)c1ccc([n-]1)c(-c1ccccc1)c1nc(c(-c3ccccc3)c3ccc([n-]3)c2-c2ccccc2)C=C1.[Au+3].[Cl-]` [[Au(TPP)]Cl], the “cytotoxicity to cancer cells versus non-cancerous cells” value in [3] (MTT assay, PBMCs and CCD-19Lu cells) is “at least ten-fold higher cytotoxicity”.
`F[P-](F)(F)(F)(F)F.OC1CN=Cc2ccc[n]2[Au+][n]2cccc2C=NC1` (centres unmarked) [MA_AuOH, 2,2{(2-hydroxypropane-1,3-diyl)bis[nitrilo(E)methyl-ylidene]}bis(pyrrol-1-ido)gold(III) hexafluorophosphate(V)]: in data set [7] (50% cell death, read-out: LC50 (the source's name)), the CC50 was greater than 100 µM. In data set [7] (50% growth inhibition), this compound came in with a GI50 greater than 100 µM. Further, the TGI (concentration for total growth inhibition) in data set [7] (100% (total) growth inhibition, read-out: TGI or IC50) was greater than 100 µM. In [5], the one-dose screening result is given as “not sufficiently active”. In addition, the “Ka (calf thymus DNA)” value with calf thymus DNA (MA series: pH 7.0 phosphate buffer at 37° C.) was 1.43(3) × 10^5 M^−1.
